Measured values from US8399416B2, “Method of using heparin binding motif for treating asthma” (National Tsing Hua University, priority 2008, dated 2013).
Numbering of substitutions follows the chain as printed.

How the values were obtained:
ECP = target: T1, ECP (Homo sapiens, UniProt P12724); experiment: FACE analysis of ECP binding to heparin oligosaccharides; conditions: AMAC-labeled oligosaccharide incubated with ECP, 1% agarose gel
T1 construct: His6 (C); made in house; host or cells: E. coli BL21-CodonPlus (DE3)
T1 sequence (P12724 28-160): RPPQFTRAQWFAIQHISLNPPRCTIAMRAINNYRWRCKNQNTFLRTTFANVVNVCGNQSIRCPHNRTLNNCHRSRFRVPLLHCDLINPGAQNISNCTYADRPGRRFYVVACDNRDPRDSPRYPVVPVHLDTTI
Protocol: FIG. 2. FACE analysis to evaluate binding of ECP to various sugar-containing substrates. A, AMAC-labeled LMWH was incubated with or without ECP in PBS for 10 min at 25° C., and the binding reaction products were separated on a 1% agarose gel. The numbers above the gel indicate the molar ratio of ECP to LMWH. B, Representative oligosaccharide binding pattern of ECP. AMAC-labeled heparin dp3 (10.8 nmol), dp5 (3.3 nmol), dp7 (1.4 nmol), dp9 (1.1 nmol), LMWH (0.03 nmol) and PI-88 (0.03 nmol) were incubated with or without 10-fold molar excess of ECP, and the binding reaction products separated on a 1% agarose gel. C, Representative oligosaccharide binding pattern of EDN. AMAC-labeled heparin dp3 (10.8 nmol), dp5 (3.3 nmol), dp7 (1.4 nmol), dp9 (1.1 nmol), LMWH (0.03 nmol) and PI-88 (0.03 nmol) were incubated with or without 10-fold molar excess of ECP, and the binding reaction products separated on a 1% agarose gel.
Thus, the minimal heparin length (or disaccharide unit) required to interact with ECP was investigated by FACE (Fluorescence-assisted carbohydrate electrophoresis).
Initially, ECP was co-incubated with LMWH at various molar ratios, and the binding products were analyzed by gel electrophoresis. […]

[1] = tested on: ECP binding to Beas-2B cells; experiment: Competitive inhibition of MBP-ECP binding to Beas-2B cells (cell ELISA); type: cell-based, human; conditions: Fifty micrograms per mililiter oligosaccharide; 5 μg/ml MBP-ECP; 4° C.
Protocol: FIG. 3. Heparin oligosaccharides inhibit ECP binding to cells. […] The amount of MBP-ECP bound to cells without GAG treatment was set to 100%. C, control (cells were incubated with MBP.) The data shown are the means of triplicate experiments.
FIG. 7. Synthetic peptides inhibit ECP binding to cells. […] The data shown are the means of triplicate experiments.
Beas-2B, a human bronchial epithelial cell line, was cultured in RPMI 1640 medium (Sigma-Aldrich) supplemented with heat-inactivated 10% fetal bovine serum (Gibco/Invitrogen, Carlsbad, Calif.).
The ability of MBP-ECP to bind cells in the presence of serial dilutions of oligosaccharides or peptides was determined as described (Fan, T. C., et al. (2007) Traffic 8, 1778-1795). At the present invention, synthetic heparins (dp3-9) were tested for their ability to interfere with ECP binding to Beas-2B cells. Briefly, confluent monolayers of Beas-2B cells in 96-well plates were pretreated with various concentrations of oligosaccharides or peptides in serum-free RPMI 1640 medium at 4° C. for 30 min before incubation with 5 μg/ml MBP-ECP at 4° C. for 1 h. The cells were then washed with ice-cold PBS and fixed with 2% PFA at room temperature for 15 min prior to blocking with 2% BSA/PBS at room temperature for 90 min. The level of bound MBP-ECP was quantified by ELISA analysis. MBP-ECP was detected using mouse monoclonal anti-MBP and goat anti-mouse horseradish peroxidase (HRP)-conjugated secondary antibody, followed by the enhanced chemiluminescence detection system. The amount of MBP-ECP bound to cells without oligosaccharide or peptide treatment was set to 100%.

ECP wt = target: T2, ECP wt (Homo sapiens, UniProt P12724); experiment: Intrinsic tryptophan fluorescence titration of ECP wt with heparin oligosaccharides; type: binding; conditions: PBS at 25° C., read-out: Kd, ECP wt
T2 construct: His6 (C); made in house; host or cells: E. coli BL21-CodonPlus (DE3)
T2 sequence (P12724 28-160): T1 sequence (P12724 28-160)
Protocol: (§1) FIG. 5. ITFE profiles of ECP wt and mt1 with dp5. Tryptophan titration emission spectra of […] ECP wt or mt1 bound with dp5. The emission spectra at 340 nm were recorded. The resulting isotherms were fitted by nonlinear regression least-squares computer fit using the KaleidaGraph Synergy Software. ΔF, the relative fluorescence change, equals F0−Fobs, where F0 and Fobs represent the initial and observed fluorescence values, respectively.
(§2) The binding affinities of wild-type and mutant ECP for heparin oligosaccharides were subsequently monitored by intrinsic tryptophan fluorescence titration (Lau, E. K., et al. (2004) The Journal of biological chemistry 279, 22294-22305).
(§3) Binding of ECP to heparin was monitored by changes in intrinsic tryptophan fluorescence emission (IFTE). ECP (200 nM) in PBS at 25° C. was titrated with small aliquots of a high concentration of pentasaccharides with minimal dilution (<2%). Protein fluorescence measurements were recorded 2 min after each addition on a Hitachi 8000 spectrofluorimeter at emission wavelength of 340 nm using an excitation wavelength of 280 nm. ΔF, the relative fluorescence change, equals F0−Fobs, where F0 and Fobs represent the initial and observed fluorescence values, respectively. […]

ECP mt1 = target: T3, ECP mt1 (Homo sapiens, UniProt P12724, K65A/R61A/R63A/W62A); experiment: Intrinsic tryptophan fluorescence titration of ECP mt1 with heparin oligosaccharides; type: binding; conditions: PBS at 25° C., read-out: Kd, ECP mt1
T3 construct: recombinant mature ECP was injected into the rat circulation; His6 (C); made in house; host or cells: E. coli BL21-CodonPlus(DE3)
T3 sequence (P12724 28-160 R61A/W62A/R63A/K65A): T1 sequence (P12724 28-160) with R34A, W35A, R36A, K38A
Protocol: as §1
Amino acid residues R34, W35, R36, and K38 of ECP were simultaneously substituted to alanine using QuickChange site-directed mutagenesis (Stratagene, La Jolla, Calif.) and the resultant mutant was named ECP mt1. […]
as §2
as §3, with “ECP (200 nM) in PBS at 25° C. was titrated with small aliquots of a high concentration of pentasaccharides with minimal dilution (<2%).” left out

C1 peptide = C1 peptide (Homo sapiens, UniProt P12724); experiment: Tryptophan fluorescence titration of C1 peptide with heparin oligosaccharides; type: binding; conditions: 1 μM peptide; tryptophan fluorescence at 340 nm; read-out: Kd, C1 peptide
Protocol: FIG. 10. Titration profiles of synthetic peptides by synthetic heparin oligosaccharides. Titrations were carried out on 1 μM peptides in the presence of heparin oligosaccharides. The Kd of each peptide-oligosaccharide interaction was determined by measuring the fluorescence change of intrinsic tryptophan at 340 nm. Data were fitted to a single-binding-site curve using nonlinear least-squares analysis.
as §3

Beas-2B cells = conditions: biotinylated peptides, 1 h at 4° C.
Protocol: FIG. 7. Synthetic peptides inhibit ECP binding to cells. A, Beas-2B cells were preincubated with peptides in RPMI 1640 medium for 30 min at 4° C. before incubation with MBP-ECP for an additional 1 h. After treatment, the cells were washed with PBS and fixed with PFA. The level of bound MBP-ECP was assessed by ELISA. The amount of MBP-ECP bound to cells without peptide treatment was set to 100%. The data shown are the means of triplicate experiments. B, Beas2-B cells were incubated with biotinylated peptides for 1 h at 4° C. The amount of peptides bound to cells was assessed as for FIG. 3.
To investigate whether the RWRCK (SEQ ID NO: 8) motif is directly responsible for heparin binding, cell ELISA was conducted using a synthetic peptide, C1 (SEQ ID NO: 3), along with a positive control peptide derived from HIV-TAT, TAT (SEQ ID NO: 6) (Vives, E., et al. (1997) The Journal of biological chemistry 272, 16010-16017; Ziegler, A. and Seelig, J. (2004) Biophysical journal 86, 254-263). […] Therefore, synthetic peptides with heparin binding activity may compete with ECP for cellular binding. Furthermore, the cell surface binding ability of peptides was tested using cell ELISA assay.

[2] = AMAC-labeled LMWH, increasing peptide concentrations, room temperature 15 min
Protocol: FIG. 9. FACE analysis of synthetic peptides. AMAC-labeled LMWH were incubated without or with increasing concentrations of C1, TAT, D1 and R1 peptides at room temperature for 15 min. Samples were loaded and separated by agarose gel electrophoresis as described for FIG. 2.
Synthetic heparin oligosaccharide (FIG. 1) (Lee, C. J., et al. (2004) J Am Chem Soc 126, 476-477), low molecular weight heparin (LMWH) and PI-88 (kindly provided by Progen Inc., Australia) were labeled with 2-aminoacridone (AMAC) as described (Calabro, A., et al. (2000) Glycobiology 10, 273-281). AMAC-oligosaccharide and proteins were incubated at room temperature for 15 min, loaded onto 1% gels and electrophoresed as described (Holmes, O., et al. (2007) J Mol Biol 367, 395-408).
In addition, because EDN contains a conventional heparin binding sequence, the corresponding peptide, D1 (SEQ ID NO: 4), was also synthesized and tested.

[3] = PBS buffer at 25° C.; HMWH 10-20 μM
Protocol: FIG. 11. Isothermal titration calorimetry of heparin-peptide interaction. The top panels show the differential power time course. Raw data for sequential 6-μl injections of each synthetic peptide in PBS buffer at 25° C. TAT (positive control), B, R1 (negative control), C, C1, and D, D1 into the sample cell containing 1.4 ml HMWH solution (10-20 μM). The total heat released in each injection is proportional to the area under the corresponding peak. […] The solid line represents a non-linear least squares of the reaction heat for the injection.

[4] = tested on: Beas-2B cell surface heparan sulfate; conditions: 4° C. for 30 min
Protocol: Human Beas-2B cells were incubated with synthetic peptide (A, TAT; B, D1) at 4° C. for 30 min and then washed, fixed and analyzed. Synthetic peptide was identified with mouse anti-biotin monoclonal antibody and FITC-conjugated goat anti-mouse antibody. The distribution of synthetic peptide was examined by confocal microscopy.
To investigate whether the heparin binding QRRCK motif on EDN, corresponding to the “RWRCK” motif on ECP (SEQ ID NO: 8), was directly responsible for heparan sulfate binding on cell surface, Beas-2B cell-peptide binding was conducted using a synthetic peptide, D1 (SEQ ID NO: 4), and a positive control, TAT (SEQ ID NO: 6) purchased from Genemed Synthesis (South San Francisco, Calif.).

Beas-2B cell line = conditions: data taken from reference (Fan et al. 2007), read-out: IC50 for cytotoxic ECP; cited from earlier work

## CO[C@H]1O[C@H](COS(=O)(=O)O)[C@@H](O[C@@H]2O[C@@H](C(=O)O)[C@@H](O[C@H]3O[C@H](COS(=O)(=O)O)[C@@H](O[C@@H]4O[C@@H](C(=O)O)[C@@H](O[C@H]5O[C@H](COS(=O)(=O)O)[C@@H](O)[C@H](O)[C@H]5NS(=O)(=O)O)[C@H](O)[C@H]4OS(=O)(=O)O)[C@H](O)[C@H]3NS(=O)(=O)O)[C@H](O)[C@H]2OS(=O)(=O)O)[C@H](O)[C@H]1NS(=O)(=O)O [dp5]
ECP
  binding to ECP (FACE): shortest heparin fragment that retained the ability to bind ECP
[1]
  inhibition of ECP binding to cells: 50%
ECP wt
  Kd: 140 nM
ECP mt1
  Kd: 568 nM
C1 peptide
  Kd: 275 nM

## NYQRRCKNQNK-biotin [D1]
Beas-2B cells
  cell surface binding ability of peptides: bound to the cell surface
[2]
  interaction with LMWH (FACE): bound heparin as tightly as C1
[3]
  heat release on binding to HMWH (ITC): exothermal reaction modes were clearly observed
[4]
  peptide binding to cell surface (confocal microscopy): bound to Beas-2B cell surface heparan sulfate

B1: ECP wt: Recombinant human eosinophil cationic protein with C-terminal His6 tag, expressed in E. coli (protein, UniProt P12724 28-160, looked up)
Eosinophil cationic protein: T1 sequence (P12724 28-160)
modifications: C-terminal His6 tag
notes: Recombinant human eosinophil cationic protein with C-terminal His6 tag, expressed in E. coli
Beas-2B cell line
  IC50: 16000 nM
